Results reported in ChEMBL document CHEMBL1201862, “PubChem BioAssay data set” (2004).
The source made the active and inactive calls.

Assays:
[1] = A cytotoxicity screen of small molecule inhibitors of the PhoP region in Salmonella typhi identified in the primary screen. [Related pubchem assays: 1850, 1864, 1985 ]; assay type: functional
[2] = inhibitors of intracellular T. cruzi replication, confirmation, NIH3T3 host cells, beta-gal luminescence (AID 2044); assay type: functional, cell-based;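 further: intracellular parasites grown in NIH/3T3 mouse fibroblasts as host cells; luminescent beta-galactosidase reporter signal from transgenic T. cruzi replicating inside host cells; inhibitors lower the luminescence signal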
[3] = cytotoxicity toward NIH3T3 fibroblasts, dose response, counter-screen, cell-based, ATP luminescence, mouse fibroblasts (AID 2010); assay type: functional;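 further: cells exposed to compound for about 90 hours before reading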
[4] = cells
[5] = system: INS1; assay: beta cell apoptosis inhibitors, cytokine rescue, dose response, luminescence, retest (AID 449756); assay type: functional, cell-based; details: Rattus norvegicus;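 further: cell death triggered by IL-1 beta plus TNF-alpha plus IFN-gamma mixture; protective hits raise ATP signal compared with cytokine alone wells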
[6] = MC4R antagonists, dose response, counter-screen for LGR2 antagonist project, cell-based, plate reader, cherry pick (AID 743444); assay type: functional;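 further: transfected HEK 293 cells stimulated with alpha-MSH peptide; potency of inhibitors of the alpha-MSH evoked signal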
[7] = molecular target: Peroxisome proliferator-activated receptor gamma/Nuclear receptor coactivator 2 (Homo sapiens, UniProt P37231); assay: (§1) TR-FRET dose response biochemical High Throughput Screening assay for agonists of the steroid receptor coactivator 2 (SRC-2) recruitment by the peroxisome proliferator-activated receptor gamma (PPAR gamma): non-selective agonists. [Related pubchem assays: 1297, 1032 ]; assay type: functional
Chain of Peroxisome proliferator-activated receptor gamma/Nuclear receptor coactivator 2 (P37231 whole entry): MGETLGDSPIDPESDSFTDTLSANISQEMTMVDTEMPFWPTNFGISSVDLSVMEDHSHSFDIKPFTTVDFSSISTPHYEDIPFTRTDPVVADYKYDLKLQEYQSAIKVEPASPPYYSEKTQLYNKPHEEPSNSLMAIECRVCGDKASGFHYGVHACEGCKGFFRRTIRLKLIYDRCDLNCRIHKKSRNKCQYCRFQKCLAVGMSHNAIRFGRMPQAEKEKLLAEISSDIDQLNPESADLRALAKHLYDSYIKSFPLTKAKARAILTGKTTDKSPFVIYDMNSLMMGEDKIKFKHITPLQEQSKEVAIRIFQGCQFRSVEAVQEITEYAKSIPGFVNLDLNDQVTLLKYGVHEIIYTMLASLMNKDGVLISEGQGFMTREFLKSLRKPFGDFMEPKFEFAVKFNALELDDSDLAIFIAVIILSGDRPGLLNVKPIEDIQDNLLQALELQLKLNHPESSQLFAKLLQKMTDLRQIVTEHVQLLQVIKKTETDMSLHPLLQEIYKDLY
Chain of Peroxisome proliferator-activated receptor gamma/Nuclear receptor coactivator 2 (Q15596 whole entry, further chain): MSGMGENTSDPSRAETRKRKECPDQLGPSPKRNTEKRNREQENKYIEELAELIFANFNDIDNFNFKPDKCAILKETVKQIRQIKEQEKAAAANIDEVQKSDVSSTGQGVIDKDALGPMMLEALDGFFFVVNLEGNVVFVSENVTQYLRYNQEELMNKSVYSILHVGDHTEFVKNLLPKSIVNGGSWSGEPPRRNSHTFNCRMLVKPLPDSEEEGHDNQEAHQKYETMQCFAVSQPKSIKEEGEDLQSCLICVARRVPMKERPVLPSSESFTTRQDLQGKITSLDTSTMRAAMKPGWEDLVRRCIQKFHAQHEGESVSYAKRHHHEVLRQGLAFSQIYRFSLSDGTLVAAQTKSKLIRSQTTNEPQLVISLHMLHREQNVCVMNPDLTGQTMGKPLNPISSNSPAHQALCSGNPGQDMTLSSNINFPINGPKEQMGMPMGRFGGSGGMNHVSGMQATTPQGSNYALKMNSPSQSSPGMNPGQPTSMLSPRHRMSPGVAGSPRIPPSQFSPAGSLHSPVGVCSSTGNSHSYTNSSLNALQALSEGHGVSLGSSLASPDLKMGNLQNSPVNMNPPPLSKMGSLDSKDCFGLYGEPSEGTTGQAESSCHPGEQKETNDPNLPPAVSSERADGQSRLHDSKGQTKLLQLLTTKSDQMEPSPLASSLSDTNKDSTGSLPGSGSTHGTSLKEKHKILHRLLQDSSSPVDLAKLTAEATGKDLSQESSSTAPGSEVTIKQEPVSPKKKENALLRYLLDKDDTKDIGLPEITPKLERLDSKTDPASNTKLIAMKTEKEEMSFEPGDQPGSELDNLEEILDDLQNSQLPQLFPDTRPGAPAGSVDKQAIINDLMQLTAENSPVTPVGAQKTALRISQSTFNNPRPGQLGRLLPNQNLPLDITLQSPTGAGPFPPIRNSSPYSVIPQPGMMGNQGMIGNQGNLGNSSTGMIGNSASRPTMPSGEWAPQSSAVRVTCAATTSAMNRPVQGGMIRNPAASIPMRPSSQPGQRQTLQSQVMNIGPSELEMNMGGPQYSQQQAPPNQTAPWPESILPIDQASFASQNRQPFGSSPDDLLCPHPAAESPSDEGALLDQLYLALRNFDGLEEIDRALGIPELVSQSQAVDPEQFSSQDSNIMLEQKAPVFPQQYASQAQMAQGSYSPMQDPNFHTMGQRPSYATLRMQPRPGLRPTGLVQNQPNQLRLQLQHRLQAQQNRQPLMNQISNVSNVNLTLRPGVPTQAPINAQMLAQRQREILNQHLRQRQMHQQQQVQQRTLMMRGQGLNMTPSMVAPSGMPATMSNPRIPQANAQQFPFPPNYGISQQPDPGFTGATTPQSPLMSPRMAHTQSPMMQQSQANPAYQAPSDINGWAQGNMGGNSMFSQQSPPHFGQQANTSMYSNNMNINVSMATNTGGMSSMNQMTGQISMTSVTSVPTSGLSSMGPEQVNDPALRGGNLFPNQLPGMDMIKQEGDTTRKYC

[8] = molecular target: Peroxisome proliferator-activated receptor gamma/Nuclear receptor coactivator 1 (Homo sapiens, UniProt P37231); assay: as §1, with “1 (SRC-1)” for “2 (SRC-2)”, “assays (depositor defined):AID1300, AID1808, AID504735, AID631]” for “assays: 1297, 1032 ]”; assay type: protein assay
Chain of Peroxisome proliferator-activated receptor gamma/Nuclear receptor coactivator 1 (P37231 whole entry): as the sequence (P37231 whole entry) above
Chain of Peroxisome proliferator-activated receptor gamma/Nuclear receptor coactivator 1 (Q15788 whole entry, further chain): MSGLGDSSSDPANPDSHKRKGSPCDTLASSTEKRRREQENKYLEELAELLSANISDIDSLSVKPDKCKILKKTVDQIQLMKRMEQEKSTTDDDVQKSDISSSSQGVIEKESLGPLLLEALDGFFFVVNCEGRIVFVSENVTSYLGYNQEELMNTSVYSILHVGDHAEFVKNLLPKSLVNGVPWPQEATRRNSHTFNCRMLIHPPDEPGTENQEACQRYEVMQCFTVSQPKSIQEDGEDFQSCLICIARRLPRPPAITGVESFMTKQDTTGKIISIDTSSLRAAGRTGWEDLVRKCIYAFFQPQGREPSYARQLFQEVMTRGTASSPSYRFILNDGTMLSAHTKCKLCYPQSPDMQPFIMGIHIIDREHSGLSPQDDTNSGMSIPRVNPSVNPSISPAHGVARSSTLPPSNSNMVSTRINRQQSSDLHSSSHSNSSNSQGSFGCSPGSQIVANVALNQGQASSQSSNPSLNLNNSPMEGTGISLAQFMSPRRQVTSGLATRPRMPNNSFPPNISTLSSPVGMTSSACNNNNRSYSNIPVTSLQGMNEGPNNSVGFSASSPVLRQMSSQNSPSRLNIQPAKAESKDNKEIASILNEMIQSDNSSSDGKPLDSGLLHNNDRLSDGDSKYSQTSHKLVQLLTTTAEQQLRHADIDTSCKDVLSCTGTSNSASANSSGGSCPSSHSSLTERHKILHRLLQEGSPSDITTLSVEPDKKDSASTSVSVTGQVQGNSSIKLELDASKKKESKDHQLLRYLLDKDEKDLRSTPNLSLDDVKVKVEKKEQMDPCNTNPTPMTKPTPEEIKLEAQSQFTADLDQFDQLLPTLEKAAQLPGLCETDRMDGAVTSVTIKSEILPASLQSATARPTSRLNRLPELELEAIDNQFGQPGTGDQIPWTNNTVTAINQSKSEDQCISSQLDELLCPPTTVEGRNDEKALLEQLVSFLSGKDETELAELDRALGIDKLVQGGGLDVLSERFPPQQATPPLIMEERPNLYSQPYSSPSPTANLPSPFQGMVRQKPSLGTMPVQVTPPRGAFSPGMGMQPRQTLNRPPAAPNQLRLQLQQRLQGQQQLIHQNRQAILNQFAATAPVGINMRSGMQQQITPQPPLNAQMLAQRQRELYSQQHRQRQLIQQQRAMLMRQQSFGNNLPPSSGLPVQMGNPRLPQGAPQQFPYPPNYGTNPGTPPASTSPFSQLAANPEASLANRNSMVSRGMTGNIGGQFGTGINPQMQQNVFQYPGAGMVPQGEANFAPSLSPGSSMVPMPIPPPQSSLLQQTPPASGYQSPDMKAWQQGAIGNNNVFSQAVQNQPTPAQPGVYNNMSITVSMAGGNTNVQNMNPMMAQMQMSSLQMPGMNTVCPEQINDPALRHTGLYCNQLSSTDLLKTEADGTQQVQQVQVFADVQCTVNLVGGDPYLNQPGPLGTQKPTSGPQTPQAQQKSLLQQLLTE

[9] = molecular target: Peroxisome proliferator-activated receptor gamma/Nuclear receptor coactivator 3 (Homo sapiens, UniProt P37231); assay: as §1, with “3 (SRC-3)” for “2 (SRC-2)”, “1301 (Confirmation screen.), 1048 (Primary screen.)]” for “1297, 1032 ]”; assay type: functional
[10] = HepG2 cell cytotoxicity, dose response, cytotoxicity control, ATP luminescence, cherry-pick, activator set 2 (AID 1053143); assay type: functional, cell-based
[11] = cytotoxicity toward DRD oncogenic fibroblasts, dose response, cell-based, non-viral oncogenic, luminescence (AID 1934); assay type: functional; details: Homo sapiens
[12] = system: BJ; assay: cells; assay type: functional, cell-based; details: Homo sapiens
[13] = system: BJ; assay: cytotoxicity toward BJ-TERT-LT-ST fibroblasts, dose response, cell-based, RAS-independent, luminescence (AID 1935); assay type: functional; details: Homo sapiens;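 further: BJ fibroblasts immortalized with TERT plus LT and ST oncogenes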
[14] = molecular target: Nonstructural protein 1 (Influenza A virus, UniProt Q194T2); assay type: functional, Influenza A virus (A/California/07/2009(H1N1))
Chain of Nonstructural protein 1 (Q194T2 whole entry): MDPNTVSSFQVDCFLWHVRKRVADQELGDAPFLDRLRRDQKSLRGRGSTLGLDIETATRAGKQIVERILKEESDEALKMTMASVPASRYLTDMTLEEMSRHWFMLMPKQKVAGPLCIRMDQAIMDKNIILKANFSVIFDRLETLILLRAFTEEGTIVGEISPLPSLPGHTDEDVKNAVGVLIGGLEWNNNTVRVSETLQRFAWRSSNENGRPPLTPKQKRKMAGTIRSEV

[15] = cells; assay type: functional, cell-based
[16] = inhibitors of firefly luciferase expression or activity, dose response, H4 neuroglioma cells, luminescence (AID 1990); assay type: functional, cell-based
[17] = cells; assay type: functional, cell-based; remark: listed apart in the source
[18] = Luminescence Cell-Based Dose Response HTS to Identify Inhibitors of 5'UTR Stem-Loop Driven Prion Protein mRNA Translation in H4 Neuroglioblastoma Cells. [Related pubchem assays: 1827 (Project Summary), 1813 (Primary HTS)]; assay type: functional
[19] = system: BJ; assay: cytotoxicity toward BJ-TERT fibroblasts, dose response, cell-based, RAS-independent, luminescence (AID 1933); assay type: functional; details: Homo sapiens
[20] = system: HEK293; assay: inhibitors of LMP1-driven NF-kB reporter, dose response, cell-based, HEK293, luciferase, cherry-pick (AID 588343); assay type: functional; details: Homo sapiens
[21] = A Cell Based Secondary Assay To Explore Cytotoxicity of Compounds that Sensitize Mycobacterium Tuberculosis to Beta-Lactam Antibiotics.; assay type: functional

## CC1(C)CC(=O)C2=C(C1)N(c1ccc(F)cc1)C(=O)CC2c1ccsc1 (stereo not given)
[1]
  EC50: > 50 µM (active)

## CC(=O)Nc1nc(-c2cccc3ccccc23)cs1
[2]
  EC50: < 0.1 µM (active)
[3]
  EC50: > 60 µM (not active)
[4]
  EC50: 0.264 µM (active)

## Cc1ccccc1Oc1ccc(Oc2ccccc2C)nn1
[1]
  EC50: > 50 µM (active)

## Cc1ccc2nc(-c3ccc(NC(=O)c4cccnc4)cc3)oc2c1
[5]
  AC50: 4.63 µM (active)
[6]
  AC50: 29.2 µM (active)

## O=C(Nc1ccc(N2CCOCC2)c(Cl)c1)c1ccccc1F
[1]
  EC50: > 50 µM (active)

## C=CCn1c(NC(C)c2cc(Cl)ccc2O)nc2ccccc21 (stereo not given)
[7]
  EC50: > 79.4 µM (not active)
[1]
  EC50: > 50 µM (active)
[8]
  EC50: > 79.4 µM (inactive)
[9]
  EC50: 13.3 µM (not active)

## CCOC(=O)c1ccc2nc(NC(=O)c3ccco3)sc2c1
[10]
  AC50: 26 µM (active)

## C(=N\Nc1nc2ccccc2[nH]1)/c1cccc2cccnc12
[11]
  EC50: 2.33 µM (active)
[12]
  EC50: 3.01 µM (active)
[13]
  EC50: 3.36 µM (active)
[14]
  IC50: 13.4 µM (active)
[15]
  EC50: 97.6 µM (active)
[10]
  AC50: 26 µM (active)
[16]
  EC50: 5.09 µM (active)
[17]
  EC50: 66.2 µM (active)
[18]
  EC50: > 120 µM (not active)
[19]
  EC50: 1.53 µM (active)
[20]
  AC50: 2.96 µM (active)

## Cn1c(/C=N/c2nc3ccccc3[nH]2)nc2ccccc21
[21]
  CC50: 37.4 µM (active)
